Reference: patent publication US9617286B2, “Fungicide N-[(trisubstitutedsilyl)methyl]-carboxamide derivatives” (BAYER INTELLECTUAL PROPERTY GMBH, priority 2011, dated 2017)

Assays:
[1] = log P by HPLC on reversed-phase column (C 18), EEC Directive 79/831 Annex V.A8; format: physicochemical; settings: 40° C., 0.1% aqueous formic acid and acetonitrile, linear gradient 10% to 90% acetonitrile
Experimental: In table 1, the log P values were determined in accordance with EEC Directive 79/831 Annex V.A8 by HPLC (High Performance Liquid Chromatography) on a reversed-phase column (C 18), using the method described below:
Temperature: 40° C.; Mobile phases: 0.1% aqueous formic acid and acetonitrile; linear gradient from 10% acetonitrile to 90% acetonitrile.
Calibration was carried out using unbranched alkan-2-ones (comprising 3 to 16 carbon atoms) with known log P values (determination of the log P values by the retention times using linear interpolation between two successive alkanones). lambda-max-values were determined using UV-spectra from 200 nm to 400 nm and the peak values of the chromatographic signals.

Pyrenophora teres = assay: In vivo preventive test on Pyrenophora teres (barley); settings: preventive spray (DMF/alkylaryl polyglycol ether), 500 ppm of active ingredient, evaluated 7-9 days after inoculation
Experimental: Solvent: 49 parts by weight of N,N-dimethylformamide Emulsifier: 1 part by weight of alkylaryl polyglycol ether To produce a suitable preparation of active compound, 1 part by weight of active compound is mixed with the stated amounts of solvent and emulsifier, and the concentrate is diluted with water to the desired concentration. To test for preventive activity, young plants are sprayed with the preparation of active compound at the stated rate of application. One day after this treatment, the plants are inoculated with an aqueous spore suspension of Pyrenophora teres. The plants remain for 48 hours in an incubation cabinet at 22° C. and a relative atmospheric humidity of 100%. Then the plants are placed in a greenhouse at a temperature of approximately 20° C. and a relative atmospheric humidity of approximately 80%.

| Structure (SMILES) | logP [1] | Efficacy (Pyrenophora teres) [%] |
| --- | --- | --- |
| C[Si](C)(CN(C(=O)c1cccnc1Cl)C1CC1)c1ccccc1 [Example 4] | 3.50 | – |
| CC1=C(C(=O)NC[Si](C)(C)c2ccccc2)SCCO1 [Example 6] | 3.13 | – |
| CCc1ccccc1[Si](C)(C)CN(C(=O)c1cccnc1Cl)C1CC1 [Example 18] | 4.16 | – |
| CCc1ccccc1[Si](C)(C)CN(C(=O)c1cccnc1C(F)F)C1CC1 [Example 19] | 4.06 | – |
| C[Si](C)(CN(C(=O)c1cccnc1Cl)C1CC1)c1ccccc1Cl [Example 23] | 3.94 | – |
| C[Si](C)(CN(C(=O)c1ccccc1I)C1CC1)c1ccccc1Cl [Example 24] | 5.14 | – |
| C[Si](C)(CN(C(=O)c1ccccc1C(F)(F)F)C1CC1)c1ccccc1Cl [Example 25] | 5.03 | – |
| C[Si](C)(CN(C(=O)c1cccnc1C(F)(F)F)C1CC1)c1ccccc1Cl [Example 27] | 4.31 | – |
| C[Si](C)(CN(C(=O)c1ccccc1I)C1CC1)c1cccc(Cl)c1 [Example 30] | 5.14 | – |
| C[Si](C)(CN(C(=O)c1ccccc1C(F)(F)F)C1CC1)c1cccc(Cl)c1 [Example 31] | 5.03 | – |
| C[Si](C)(CN(C(=O)c1cccnc1C(F)(F)F)C1CC1)c1cccc(Cl)c1 [Example 33] | 4.34 | 80 |
| C[Si](C)(CN(C(=O)c1cccnc1Cl)C1CC1)c1cccc(Cl)c1 [Example 35] | 3.96 | – |
| CC[Si](C)(CN(C(=O)c1cccnc1C(F)(F)F)C1CC1)c1ccccc1Cl (stereo not shown) [Example 37] | 4.71 | – |
| CC1=C(C(=O)N(C[Si](C)(C)c2ccccc2Cl)C2CC2)SCCO1 [Example 43] | 4.29 | – |
| C[Si](C)(CN(C(=O)c1cccnc1Cl)C1CC1)c1ccccc1C(F)(F)F [Example 53] | 4.04 | – |
| C[Si](C)(CNC(=O)c1cccnc1C(F)F)c1ccc(Cl)cc1Cl [Example 57] | 3.64 | – |
| C[Si](C)(CN(C(=O)c1nccnc1C(F)(F)F)C1CC1)c1ccc(Cl)cc1Cl [Example 58] | 5.25 | 100 |
| C[Si](C)(CN(C(=O)c1cccnc1Cl)C1CC1)c1ccc(Cl)cc1Cl [Example 59] | 4.64 | – |
| C[Si](C)(CN(C(=O)c1ccccc1I)C1CC1)c1ccc(Cl)cc1Cl [Example 60] | 5.88 | – |
| C[Si](C)(CN(C(=O)c1ccccc1C(F)(F)F)C1CC1)c1ccc(Cl)cc1Cl [Example 61] | 5.72 | – |
| C[Si](C)(CN(C(=O)c1nccnc1C(F)(F)F)C1CC1)c1cc(Cl)cc(Cl)c1 [Example 64] | 4.95 | – |
| C[Si](C)(CN(C(=O)c1cccnc1Cl)C1CC1)c1cc(Cl)cc(Cl)c1 [Example 65] | 4.61 | – |
| C[Si](C)(CN(C(=O)c1ccccc1C(F)(F)F)C1CC1)c1cc(Cl)cc(Cl)c1 [Example 66] | 5.65 | – |
| C[Si](C)(CN(C(=O)c1cccnc1C(F)(F)F)C1CC1)c1cc(Cl)cc(Cl)c1 [Example 67] | 4.95 | – |

| Structure (SMILES) | logP [1] | Efficacy (Pyrenophora teres) [%] |
| --- | --- | --- |
| C[Si](C)(CN(C(=O)c1cccnc1C(F)F)C1CC1)c1cc(Cl)cc(Cl)c1 [Example 68] | 4.49 | 80 |
| C[Si](C)(CN(C(=O)c1cccnc1Cl)C1CC1)c1cccc2ccccc12 [Example 69] | 4.15 | – |
| C[Si](C)(CN(C(=O)c1ccccc1I)C1CC1)c1cccc2ccccc12 [Example 70] | 5.31 | – |
| C[Si](C)(CN(C(=O)c1ccccc1C(F)(F)F)C1CC1)c1cccc2ccccc12 [Example 71] | 5.19 | – |
| C[Si](C)(CN(C(=O)c1cccnc1C(F)(F)F)C1CC1)c1cccc2ccccc12 [Example 73] | 4.51 | – |
| C[Si](C)(CN(C(=O)c1cccnc1Cl)C1CC1)c1ccc2ccccc2c1 [Example 75] | 4.23 | – |
| C[Si](C)(CN(C(=O)c1ccccc1I)C1CC1)c1ccc2ccccc2c1 [Example 76] | 5.36 | – |
| C[Si](C)(CN(C(=O)c1cccnc1C(F)(F)F)C1CC1)c1ccc2ccccc2c1 [Example 78] | 4.56 | 95 |
| C[Si](C)(CN(C(=O)c1ccccc1C(F)(F)F)C1CC1)c1ccc2ccccc2c1 [Example 80] | 5.25 | – |
| C[Si](C)(CN(C(=O)c1cccnc1C(F)(F)F)C1CC1)c1cccs1 [Example 81] | 3.80 | – |
| C[Si](C)(CN(C(=O)c1nccnc1C(F)(F)F)C1CC1)c1cccs1 [Example 82] | 4.01 | 95 |
| C[Si](C)(CN(C(=O)c1cccnc1Cl)C1CC1)c1cccs1 [Example 83] | 3.39 | – |
| C[Si](C)(CN(C(=O)c1ccccc1I)C1CC1)c1cccs1 [Example 84] | 4.59 | – |
| C[Si](C)(CN(C(=O)c1ccccc1C(F)(F)F)C1CC1)c1cccs1 [Example 85] | 4.51 | – |
| C[Si](C)(CN(C(=O)c1cccnc1Cl)C1CC1)c1ccsc1 [Example 88] | 3.33 | – |
| C[Si](C)(CN(C(=O)c1ccccc1I)C1CC1)c1ccsc1 [Example 89] | 4.49 | – |
| C[Si](C)(CN(C(=O)c1ccccc1C(F)(F)F)C1CC1)c1ccsc1 [Example 90] | 4.44 | – |
| C[Si](C)(Cc1ccccc1)CN(C(=O)c1cccnc1Cl)C1CC1 [Example 94] | 3.87 | – |
| C[Si](C)(Cc1ccccc1)CN(C(=O)c1ccccc1I)C1CC1 [Example 95] | 5.00 | – |
| C[Si](C)(Cc1ccccc1)CN(C(=O)c1ccccc1C(F)(F)F)C1CC1 [Example 96] | 4.90 | – |
| C[Si](C)(Cc1ccccc1)CN(C(=O)c1cccnc1C(F)(F)F)C1CC1 [Example 97] | 4.19 | – |
| C[Si](C)(Cc1ccccc1Cl)CN(C(=O)c1cccnc1C(F)F)C1CC1 [Example 98] | 4.11 | – |
| C[Si](C)(Cc1ccccc1Cl)CN(C(=O)c1cccnc1Cl)C1CC1 [Example 100] | 4.25 | – |
| C[Si](C)(Cc1ccccc1Cl)CN(C(=O)c1ccccc1I)C1CC1 [Example 101] | 5.45 | – |

| Structure (SMILES) | logP [1] | Efficacy (Pyrenophora teres) [%] |
| --- | --- | --- |
| C[Si](C)(Cc1ccccc1Cl)CN(C(=O)c1ccccc1C(F)(F)F)C1CC1 [Example 102] | 5.31 | – |
| C[Si](C)(Cc1ccccc1Cl)CN(C(=O)c1cccnc1C(F)(F)F)C1CC1 [Example 103] | 4.59 | – |
| C[Si](C)(Cc1cccc(Cl)c1)CN(C(=O)c1cccnc1Cl)C1CC1 [Example 106] | 4.30 | – |
| C[Si](C)(Cc1cccc(Cl)c1)CN(C(=O)c1ccccc1I)C1CC1 [Example 107] | 5.45 | – |
| C[Si](C)(Cc1cccc(Cl)c1)CN(C(=O)c1ccccc1C(F)(F)F)C1CC1 [Example 108] | 5.31 | – |
| C[Si](C)(Cc1cccc(Cl)c1)CN(C(=O)c1cccnc1C(F)(F)F)C1CC1 [Example 109] | 4.61 | – |
| C[Si](C)(Cc1ccc(Cl)cc1Cl)CN(C(=O)c1nccnc1C(F)(F)F)C1CC1 [Example 111] | 5.45 | 95 |
| C[Si](C)(Cc1ccc(Cl)cc1Cl)CN(C(=O)c1cccnc1Cl)C1CC1 [Example 112] | 4.90 | – |
| C[Si](C)(Cc1ccc(Cl)cc1Cl)CN(C(=O)c1ccccc1I)C1CC1 [Example 113] | 6.14 | – |
| C[Si](C)(Cc1ccc(Cl)cc1Cl)CN(C(=O)c1ccccc1C(F)(F)F)C1CC1 [Example 114] | 5.94 | – |
| C[Si](C)(Cc1ccc(Cl)cc1Cl)CN(C(=O)c1cccnc1C(F)(F)F)C1CC1 [Example 115] | 5.22 | – |
| C[Si](C)(Cc1cc(Cl)cc(Cl)c1)CN(C(=O)c1nccnc1C(F)(F)F)C1CC1 [Example 116] | 5.45 | – |
| C[Si](C)(Cc1cc(Cl)cc(Cl)c1)CN(C(=O)c1cccnc1Cl)C1CC1 [Example 118] | 4.92 | – |
| C[Si](C)(Cc1cc(Cl)cc(Cl)c1)CN(C(=O)c1ccccc1I)C1CC1 [Example 119] | 6.14 | – |
| C[Si](C)(Cc1cc(Cl)cc(Cl)c1)CN(C(=O)c1ccccc1C(F)(F)F)C1CC1 [Example 120] | 5.94 | – |
| C[Si](C)(Cc1cc(Cl)cc(Cl)c1)CN(C(=O)c1cccnc1C(F)(F)F)C1CC1 [Example 121] | 5.22 | – |
| CN(C[Si](C)(C)c1cc(Cl)cc(Cl)c1)C(=O)c1cccnc1C(F)F [Example 122] | 3.92 | – |
| C[Si](C)(CNC(=S)c1cccnc1C(F)F)c1ccccc1Cl [Example 123] | 3.83 | – |
| C[Si](C)(CN(C(=S)c1cccnc1C(F)F)C1CC1)c1ccc(Cl)cc1Cl [Example 124] | 5.13 | – |
| C[Si](C)(CN(C(=S)c1cccnc1C(F)F)C1CC1)c1ccc2ccccc2c1 [Example 125] | 4.72 | – |
| C[Si](C)(CN(C(=S)c1nccnc1C(F)(F)F)C1CC1)c1ccc2ccccc2c1 [Example 126] | 5.35 | – |
| C[Si](C)(Cc1ccccc1Cl)CN(C(=S)c1cccnc1C(F)F)C1CC1 [Example 127] | 4.76 | – |
